{
  "source": "paper PMC9851907",
  "about": "“A single 2′-O-methylation of ribosomal RNA gates assembly of a functional ribosome” (Nature Structural & Molecular Biology, 2022)",
  "biological_target": "T1, Nog2 (Nog2-3xFLAG) (Saccharomyces cerevisiae, UniProt P53742)",
  "T1 construct": "full-length, genomic C-terminal 3xFLAG-6xHis tag (kept); native anti-FLAG purification from yeast within pre-60S particle with unmodified G2922 (spb1-D52A cells)",
  "test": "cryo-EM structure, […] A",
  "type": "binding",
  "conditions": "Mg2+; GTPase active site; nucleotide co-purified; pre-60S with unmethylated G2922; Table 1 lists only Mg2+ as ligand",
  "data": [
    {"smiles": "Nc1nc2c(ncn2[C@@H]2O[C@H](COP(=O)(O)OP(=O)(O)O)[C@@H](O)[C@H]2O)c(=O)[nH]1", "note": "[GDP]", "values": [
      {"measurement": "cryo-EM structure, 2.9 A", "result": "switch I and switch II (motifs G2 and G3) are apparently ordered around GDP"}
    ]}
  ]
}
